Data: patent US11109593B2, “Isoxazolin-5-one derivative and herbicide containing same as active ingredient” (HOKKO CHEMICAL INDUSTRY CO., LTD., priority 2017, dated 2021)

Legend:
Type in all cases: in vivo
Scirpus juncoides [1] = assay: Test Example 1: herbicidal effect test by treatment of rice paddy soil (immediately after seeding); conditions: 120 g/10a active ingredient, dry weight vs untreated area, 14 days after treatment
Outline: (§1)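 Paddy soil in pots with compound fertilizer, puddled; 30 seeds per species sown at 0–1 cm, flooded ~3 cm, greenhouse. Water-diluted emulsions dropped onto water immediately after seeding at 120 g active ingredient per 10 ares, duplicate. Herbicidal rate (%) from plant dry weight versus untreated, 14 days after treatment.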

[2] = test system: broad leaf weeds (Lindernia pyxidaria and Monochoria vaginalis); assay: as above; conditions: 120 g/10a active ingredient, dry weight vs untreated area, 14 days after treatment
Outline: as §1

Echinochloa crus-galli [3] = assay: as above; conditions: 120 g/10a active ingredient, dry weight vs untreated area, 14 days after treatment
Outline: as §1

Amaranthus viridis [4] = assay: Test Example 4: herbicidal effect test by treatment of leave and stem in dry field farming (seven days after seeding); conditions: 120 g/10a active ingredient; emulsion sprayed seven days after seeding; evaluated 14 days after treatment
Outline: (§2)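 Duplicate pots were scored 14 days post-spray by dry weight, herbicidal rate = {1 − treated/untreated average dry weight} × 100. The water-diluted emulsion, equivalent to 120 g active ingredient per 10 ares in 100 L, was applied seven days after sowing 20 seeds each into the upper 1 cm of alluvial soil.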

Echinochloa crus-galli [5] = assay: as above; conditions: 120 g/10a active ingredient; emulsion sprayed seven days after seeding; evaluated 14 days after treatment
Outline: as §2

southern crabgrass [6] = assay: as above; conditions: 120 g/10a active ingredient; emulsion sprayed seven days after seeding; evaluated 14 days after treatment
Outline: as §2

Chenopodium album [7] = assay: as above; conditions: 120 g/10a active ingredient; emulsion sprayed seven days after seeding; evaluated 14 days after treatment
Outline: as §2

Scirpus juncoides [8] = assay: Test Example 2: herbicidal effect test by treatment during growing period in paddy rice cultivation (seven days after seeding); conditions: 120 g/10a active ingredient, assessed 14 days after treatment, dry weight vs untreated area
Outline: (§3)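 Post-emergence paddy water application: compounds were formulated as emulsions, diluted and dropped into flooded pots seven days after sowing at a rate equivalent to 120 g per 10 ares. Efficacy was taken as dry-weight reduction relative to untreated controls after 14 days.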

[9] = test system: broad leaf weeds (Lindernia pyxidaria and Monochoria vaginalis); assay: as above; conditions: 120 g/10a active ingredient, assessed 14 days after treatment, dry weight vs untreated area
Outline: as §3

Echinochloa crus-galli [10] = assay: as above; conditions: 120 g/10a active ingredient, assessed 14 days after treatment, dry weight vs untreated area
Outline: as §3

Amaranthus viridis [11] = assay: Test Example 3: herbicidal effect test by treatment of dry field farming soil (one day after seeding); conditions: 120 g/10a active ingredient, evaluated 14 days after treatment
Outline: (§4)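 Dry-field alluvium pots; weed seeds incorporated in top 1 cm; soil spray of diluted emulsion 1 d after seeding, 120 g a.i./10 a in 100 L/10 a. Readout: % reduction of dry weight vs untreated, day 14, duplicates.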

Echinochloa crus-galli [12] = assay: as above; conditions: 120 g/10a active ingredient, evaluated 14 days after treatment
Outline: as §4

southern crabgrass [13] = assay: as above; conditions: 120 g/10a active ingredient, evaluated 14 days after treatment
Outline: as §4

Chenopodium album [14] = assay: as above; conditions: 120 g/10a active ingredient, evaluated 14 days after treatment
Outline: as §4

In the case of `CCN(CC)C(=O)n1oc(=O)c(Cc2ccccc2NS(=O)(=O)C(F)(F)F)c1C` [Compound 1-248], the “Herbicidal rate (%) Scirpus juncoides” value (Scirpus juncoides [1]) is reported as 50%, the “Herbicidal rate (%) Lindernia pyxidaria” value [2] is reported as 90% and the “Herbicidal rate (%) Monochoria vaginalis” value [2] is reported as 80%. The “Herbicidal rate (%) Echinochloa crus-galli” value (Echinochloa crus-galli [3]) was 60%, the “herbicidal effect (herbicidal rate), Amaranthus viridis” value (from here on “herbicidal effect … Amaranthus viridis”) (Amaranthus viridis [4]) was 40% and the “herbicidal effect (herbicidal rate), Echinochloa crus-galli” value (Echinochloa crus-galli [5]) was 80%. The “herbicidal effect (herbicidal rate), southern crabgrass” value (“herbicidal effect … southern crabgrass” for short) (southern crabgrass [6]) was 40%, the “herbicidal effect (herbicidal rate), Chenopodium album” value (“herbicidal effect … Chenopodium album” for short) (Chenopodium album [7]) was 0% and the “Herbicidal rate (%) Scirpus juncoides” value (Scirpus juncoides [8]) was 90%. The “Herbicidal rate (%) Lindernia pyxidaria” value [9] was 90%, the “Herbicidal rate (%) Monochoria vaginalis” value [9] was 90% and the “Herbicidal rate (%) Echinochloa crus-galli” value (Echinochloa crus-galli [10]) was 40%. For the same compound, the “herbicidal rate, Amaranthus viridis” value (Amaranthus viridis [11]) was 50%, the “herbicidal rate, Echinochloa crus-galli” value (Echinochloa crus-galli [12]) was 70% and the “herbicidal rate, southern crabgrass” value (southern crabgrass [13]) was 80%. The “herbicidal rate, Chenopodium album” value (Chenopodium album [14]) was 60%.
With `CCC(C)CCn1oc(=O)c(Cc2ccccc2NS(=O)(=O)C(F)(F)F)c1C` (centres unmarked) [Compound 1-124] the “Herbicidal rate (%) Scirpus juncoides” value (Scirpus juncoides [1]) was 90%, the “Herbicidal rate (%) Lindernia pyxidaria” value [2] was 90% and the “Herbicidal rate (%) Monochoria vaginalis” value [2] was 90%. For the same compound, the “Herbicidal rate (%) Echinochloa crus-galli” value (Echinochloa crus-galli [3]) was 100%, the “herbicidal effect … Amaranthus viridis” value (Amaranthus viridis [4]) was 40% and the “herbicidal effect (herbicidal rate), Echinochloa crus-galli” value (Echinochloa crus-galli [5]) was 70%. The “herbicidal effect … southern crabgrass” value (southern crabgrass [6]) was 60%, the “herbicidal effect … Chenopodium album” value (Chenopodium album [7]) was 40% and the “Herbicidal rate (%) Scirpus juncoides” value (Scirpus juncoides [8]) was 80%. For the same compound, the “Herbicidal rate (%) Lindernia pyxidaria” value [9] was 60%, the “Herbicidal rate (%) Monochoria vaginalis” value [9] was 70% and the “Herbicidal rate (%) Echinochloa crus-galli” value (Echinochloa crus-galli [10]) was 90%. For the same compound, the “herbicidal rate, Amaranthus viridis” value (Amaranthus viridis [11]) was 40%, the “herbicidal rate, Echinochloa crus-galli” value (Echinochloa crus-galli [12]) was 100% and the “herbicidal rate, southern crabgrass” value (southern crabgrass [13]) was 80%. The “herbicidal rate, Chenopodium album” value (Chenopodium album [14]) was 50%.
For `CCS(=O)(=O)N(c1ccccc1Cc1c(C)n(C(C)c2ccccc2)oc1=O)S(=O)(=O)C(F)(F)F` (centres unmarked) [Compound 1-917], the “Herbicidal rate (%) Scirpus juncoides” value (Scirpus juncoides [1]) was 90%, the “Herbicidal rate (%) Lindernia pyxidaria” value [2] was 90% and the “Herbicidal rate (%) Monochoria vaginalis” value [2] was 90%. For the same compound, the “Herbicidal rate (%) Echinochloa crus-galli” value (Echinochloa crus-galli [3]) was 90%, the “herbicidal effect … Amaranthus viridis” value (Amaranthus viridis [4]) was 40% and the “herbicidal effect (herbicidal rate), Echinochloa crus-galli” value (Echinochloa crus-galli [5]) was 90%. The “herbicidal effect … southern crabgrass” value (southern crabgrass [6]) was 90%, the “herbicidal effect … Chenopodium album” value (Chenopodium album [7]) was 40% and the “Herbicidal rate (%) Scirpus juncoides” value (Scirpus juncoides [8]) was 90%. The “Herbicidal rate (%) Lindernia pyxidaria” value [9] was 90%, the “Herbicidal rate (%) Monochoria vaginalis” value [9] was 90% and the “Herbicidal rate (%) Echinochloa crus-galli” value (Echinochloa crus-galli [10]) was 90%. For the same compound, the “herbicidal rate, Amaranthus viridis” value (Amaranthus viridis [11]) was 90%, the “herbicidal rate, Echinochloa crus-galli” value (Echinochloa crus-galli [12]) was 90% and the “herbicidal rate, southern crabgrass” value (southern crabgrass [13]) was 90%. For the same compound, the “herbicidal rate, Chenopodium album” value (Chenopodium album [14]) was 90%.
`CCC(=O)N(c1ccccc1Cc1c(C)n(C(C)COC)oc1=O)S(=O)(=O)C(F)(F)F` (centres unmarked) [Compound 1-319] was tested, and the “Herbicidal rate (%) Scirpus juncoides” value (Scirpus juncoides [1]) was 90%, the “Herbicidal rate (%) Lindernia pyxidaria” value [2] was 90% and the “Herbicidal rate (%) Monochoria vaginalis” value [2] was 90%. For the same compound, the “Herbicidal rate (%) Echinochloa crus-galli” value (Echinochloa crus-galli [3]) was 90%, the “herbicidal effect … Amaranthus viridis” value (Amaranthus viridis [4]) was 40% and the “herbicidal effect (herbicidal rate), Echinochloa crus-galli” value (Echinochloa crus-galli [5]) was 90%. For the same compound, the “herbicidal effect … southern crabgrass” value (southern crabgrass [6]) was 90%, the “herbicidal effect … Chenopodium album” value (Chenopodium album [7]) was 40% and the “Herbicidal rate (%) Scirpus juncoides” value (Scirpus juncoides [8]) was 90%. The “Herbicidal rate (%) Lindernia pyxidaria” value [9] was 90%, the “Herbicidal rate (%) Monochoria vaginalis” value [9] was 90% and the “Herbicidal rate (%) Echinochloa crus-galli” value (Echinochloa crus-galli [10]) was 90%. For the same compound, the “herbicidal rate, Amaranthus viridis” value (Amaranthus viridis [11]) was 90%, the “herbicidal rate, Echinochloa crus-galli” value (Echinochloa crus-galli [12]) was 90% and the “herbicidal rate, southern crabgrass” value (southern crabgrass [13]) was 90%. For the same compound, the “herbicidal rate, Chenopodium album” value (Chenopodium album [14]) was 90%.
In the case of `CCC(=O)N(c1ccccc1Cc1c(C)n(CCSC)oc1=O)S(=O)(=O)C(F)(F)F` [Compound 1-320], the “Herbicidal rate (%) Scirpus juncoides” value (Scirpus juncoides [1]) is reported as 90%, the “Herbicidal rate (%) Lindernia pyxidaria” value [2] is reported as 90% and the “Herbicidal rate (%) Monochoria vaginalis” value [2] is reported as 90%. The “Herbicidal rate (%) Echinochloa crus-galli” value (Echinochloa crus-galli [3]) was 90%, the “herbicidal effect … Amaranthus viridis” value (Amaranthus viridis [4]) was 40% and the “herbicidal effect (herbicidal rate), Echinochloa crus-galli” value (Echinochloa crus-galli [5]) was 90%. The “herbicidal effect … southern crabgrass” value (southern crabgrass [6]) was 90%, the “herbicidal effect … Chenopodium album” value (Chenopodium album [7]) was 40% and the “Herbicidal rate (%) Scirpus juncoides” value (Scirpus juncoides [8]) was 90%. The “Herbicidal rate (%) Lindernia pyxidaria” value [9] was 90%, the “Herbicidal rate (%) Monochoria vaginalis” value [9] was 90% and the “Herbicidal rate (%) Echinochloa crus-galli” value (Echinochloa crus-galli [10]) was 90%. The “herbicidal rate, Amaranthus viridis” value (Amaranthus viridis [11]) was 90%, the “herbicidal rate, Echinochloa crus-galli” value (Echinochloa crus-galli [12]) was 90% and the “herbicidal rate, southern crabgrass” value (southern crabgrass [13]) was 90%. For the same compound, the “herbicidal rate, Chenopodium album” value (Chenopodium album [14]) was 90%.
